These results are taken from ChEMBL document CHEMBL1146114, “A new class of bradykinin 1 receptor antagonists containing the piperidine acetic acid tetralin core” (Bioorg Med Chem Lett, 2006).

A value given as a limit tells only on which side of the number the result lay.

Series [1] concerns the target T1, B1 bradykinin receptor (Homo sapiens, UniProt P46663).
T1 sequence (P46663 whole entry): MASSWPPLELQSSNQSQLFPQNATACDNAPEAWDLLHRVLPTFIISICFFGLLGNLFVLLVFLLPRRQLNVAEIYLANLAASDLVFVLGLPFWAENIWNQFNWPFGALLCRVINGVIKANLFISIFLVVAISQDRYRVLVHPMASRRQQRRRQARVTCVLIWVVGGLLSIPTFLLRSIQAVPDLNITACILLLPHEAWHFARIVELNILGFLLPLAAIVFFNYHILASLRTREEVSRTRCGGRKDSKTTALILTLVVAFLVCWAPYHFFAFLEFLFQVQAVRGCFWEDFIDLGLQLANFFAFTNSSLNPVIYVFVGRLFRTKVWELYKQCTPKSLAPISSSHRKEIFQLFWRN
The series can be described thus: Inhibition of human B1 receptor.

Series [2] addresses T1, B1 bradykinin receptor. The series can be described thus: Inhibition of human B1 receptor by calcium influx functional assay.
Series [3] can be described thus: Oral bioavailability in rat at 10 mg/kg, po. The format is ADME, organism-based. As to conditions: in vivo.
A short description of series [4]: Clearance in rat at 1 mg/kg, iv. As to conditions: in vivo. Also on record: dose 1 mg/kg, route intravenous. The format is ADME, organism-based.
Series [5] is described as follows: Volume of distribution in rat at 1 mg/kg, iv. The format is ADME, organism-based. More on the design: dose 1 mg/kg, route intravenous. As to conditions: in vivo, read-out: Vss.
Series [6] can be described thus: Half life in rat at 1 mg/kg, iv. Also on record: dose 1 mg/kg, route intravenous. The note with it: in vivo. The format is ADME, organism-based.

A word on the IC50: it is the concentration that gives 50% inhibition. A word on the bioavailability: it is dose-corrected exposure relative to a reference, in per cent. High values mean much systemic uptake, low ones little systemic uptake. The clearance is the rate of elimination divided by the concentration. High values mean a high capacity for elimination, low ones a low capacity for elimination. What is called half-life is the time needed for the level to fall by half in the phase considered.

Consider `CC(C)(C)NCc1ccc2c(c1)CCC[C@H]2NC(=O)C[C@@H]1CCCCN1S(=O)(=O)c1ccccc1`, for which the IC50 against B1 bradykinin receptor [1] was determined as 1700 nM; on B1 bradykinin receptor [2] it was 2400 nM.

Turning to `CC(C)(C)NCc1ccc2c(c1)CCC[C@H]2NC(=O)C[C@@H]1CCCCN1S(=O)(=O)c1cccc(Cl)c1`, the results for the IC50 against B1 bradykinin receptor [1] and on B1 bradykinin receptor [2] were 120 nM and 73 nM, respectively.

In series [3], `CC(C)(C)NCc1ccc2c(c1)CCC[C@H]2NC(=O)C[C@@H]1CCCCN1S(=O)(=O)c1cccc(C(F)(F)F)c1` showed a bioavailability of 19%. Also, the clearance in series [4] is 36.7 mL/min/kg. For the same molecule, the Vd in series [5] was 5.4 L/kg. The same molecule gave a half-life in series [6] of 2 h.

Turning to `CCCCOc1ccc(S(=O)(=O)N2CCCC[C@H]2CC(=O)N[C@@H]2CCCc3cc(CNC(C)(C)C)ccc32)cc1`, the IC50 on B1 bradykinin receptor [1] is 1200 nM; on B1 bradykinin receptor [2] it was 590 nM.

For `Cn1cnc(S(=O)(=O)N2CCCC[C@H]2CC(=O)N[C@@H]2CCCc3cc(CNC(C)(C)C)ccc32)c1`, the IC50 at B1 bradykinin receptor [1] was over 100000 nM; on B1 bradykinin receptor [2] it was over 40000 nM.

For the molecule `CC(C)(C)NCc1ccc2c(c1)OCC[C@H]2NC(=O)C[C@@H]1CCCN1S(=O)(=O)c1cccc(C(F)(F)F)c1`, the IC50 turned out to be 1500 nM against B1 bradykinin receptor [1] and 960 nM at B1 bradykinin receptor [2].

As for `Cc1ccc(S(=O)(=O)N2CCCC[C@H]2CC(=O)N[C@@H]2CCCc3cc(CNC(C)(C)C)ccc32)cc1C(F)(F)F`, the results for the IC50 at B1 bradykinin receptor [1] and at B1 bradykinin receptor [2] were 11 nM and 16 nM, respectively.

`CC(C)CNCc1ccc2c(c1)CCC[C@H]2NC(=O)C[C@@H]1CCCCN1S(=O)(=O)c1cccc(C(F)(F)F)c1`: the results for the IC50 at B1 bradykinin receptor [1] and at B1 bradykinin receptor [2] were 13 nM and 42 nM, respectively.

In the case of `CC(C)(C)CNCc1ccc2c(c1)CCC[C@H]2NC(=O)C[C@@H]1CCCCN1S(=O)(=O)c1cccc(C(F)(F)F)c1`, the IC50 on B1 bradykinin receptor [1] stood at 59 nM; at B1 bradykinin receptor [2], 230 nM.

Take `CC(C)(C)NCc1ccc2c(c1)CCC[C@H]2NC(=O)C[C@@H]1CCCCN1S(=O)(=O)c1cccc2cccnc12`: the results for the IC50 against B1 bradykinin receptor [1] and on B1 bradykinin receptor [2] were 220 nM and 440 nM, respectively.

Consider `COc1ccc(S(=O)(=O)N2CCCC[C@H]2CC(=O)N[C@@H]2CCCc3cc(CNC(C)(C)C)ccc32)cc1`, for which the IC50 at B1 bradykinin receptor [1] is 780 nM; at B1 bradykinin receptor [2] it was 1400 nM.

Take `CC(C)(C)NCc1ccc2c(c1)CCC[C@H]2NC(=O)C[C@@H]1CCCCN1S(=O)(=O)c1cccc2cnccc12`: the half-maximal inhibitory concentration (IC50) on B1 bradykinin receptor [1] was 610 nM; at B1 bradykinin receptor [2] it was 4300 nM.

On to `CC(C)NCc1ccc2c(c1)CCC[C@H]2NC(=O)C[C@@H]1CCCCN1S(=O)(=O)c1cccc(C(F)(F)F)c1`, for which the IC50 against B1 bradykinin receptor [1] was found to be 72 nM; on B1 bradykinin receptor [2] it was 110 nM.

For `Cc1ccc(S(=O)(=O)N2CCCC[C@H]2CC(=O)N[C@@H]2CCCc3cc(CNC(C)(C)C)ccc32)cc1Cl`, the IC50 against B1 bradykinin receptor [1] worked out at 15 nM; at B1 bradykinin receptor [2], 22 nM.

In the case of `O=C(C[C@@H]1CCCCN1S(=O)(=O)c1cccc(C(F)(F)F)c1)N[C@@H]1CCCc2cc(CNC3CCC3)ccc21`, the IC50 at B1 bradykinin receptor [1] is 58 nM; at B1 bradykinin receptor [2], 54 nM.

As to `CC(C)(C)NCc1ccc2c(c1)CCC[C@H]2NC(=O)C[C@@H]1CCCCN1S(=O)(=O)c1cccc2nsnc12`, the IC50 at B1 bradykinin receptor [1] stood at 150 nM; on B1 bradykinin receptor [2], 180 nM.

Take `CC(C)(C)NCc1ccc2c(c1)CCC[C@H]2NC(=O)C[C@@H]1CCCCN1S(=O)(=O)c1ccc(C(F)(F)C(F)(F)F)cc1`: the IC50 against B1 bradykinin receptor [1] is 360 nM; at B1 bradykinin receptor [2] it was 210 nM.

Take `O=C(C[C@@H]1CCCCN1S(=O)(=O)c1cccc(C(F)(F)F)c1)N[C@@H]1CCCc2cc(CNC3CC3)ccc21`: the IC50 amounted to 48 nM against B1 bradykinin receptor [1] and 47 nM on B1 bradykinin receptor [2].

Take `Cc1ccc(S(=O)(=O)N2CCCC[C@H]2CC(=O)N[C@@H]2CCCc3cc(CNC(C)(C)C)ccc32)cc1`: the IC50 was 93 nM against B1 bradykinin receptor [1] and 130 nM on B1 bradykinin receptor [2].

For the molecule `CN(C)Cc1ccc2c(c1)CCC[C@H]2NC(=O)C[C@@H]1CCCCN1S(=O)(=O)c1cccc(C(F)(F)F)c1`, the IC50 against B1 bradykinin receptor [1] came out at 62 nM; on B1 bradykinin receptor [2], 160 nM.

With `O=C(C[C@@H]1CCCCN1S(=O)(=O)c1cccc(C(F)(F)F)c1)N[C@@H]1CCCc2cc(CN3CCC3)ccc21`, the values for the IC50 at B1 bradykinin receptor [1] and on B1 bradykinin receptor [2] were 1100 nM and 4300 nM, respectively.

Turning to `CC(C)(C)NCc1ccc2c(c1)CCC[C@H]2NC(=O)C[C@@H]1CCCCN1S(=O)(=O)c1ccc(-c2ccccc2)cc1`, the 50% inhibitory concentration (IC50) on B1 bradykinin receptor [1] turned out to be 690 nM; on B1 bradykinin receptor [2] it was 540 nM.

For `CC(C)(C)NCc1ccc2c(c1)CCC[C@H]2NC(=O)C[C@@H]1CCCCN1S(=O)(=O)c1csc2ccccc12`, the IC50 at B1 bradykinin receptor [1] was 14 nM; at B1 bradykinin receptor [2], 66 nM.

For `O=C(C[C@@H]1CCCCN1S(=O)(=O)c1cccc(C(F)(F)F)c1)N[C@@H]1CCCc2cc(CNCC(F)(F)F)ccc21`, the IC50 on B1 bradykinin receptor [1] was found to be 1900 nM; on B1 bradykinin receptor [2], 700 nM.

Turning to `CC(C)(C)NCc1ccc2c(c1)CCC[C@H]2NC(=O)C[C@@H]1CCCCN1S(=O)(=O)c1ccc(Cl)cc1`, the IC50 on B1 bradykinin receptor [1] amounted to 560 nM; on B1 bradykinin receptor [2], 810 nM.

In the case of `CC(C)(C)NCc1ccc2c(c1)OCC[C@H]2NC(=O)C[C@@H]1CCCCN1S(=O)(=O)c1cccc(C(F)(F)F)c1`, the values for the IC50 against B1 bradykinin receptor [1] and at B1 bradykinin receptor [2] were 160 nM and 95 nM, respectively.

For the molecule `COCCNCc1ccc2c(c1)CCC[C@H]2NC(=O)C[C@@H]1CCCCN1S(=O)(=O)c1cccc(C(F)(F)F)c1`, the IC50 is 21 nM against B1 bradykinin receptor [1] and 46 nM on B1 bradykinin receptor [2].

Take `O=C(C[C@@H]1CCCCN1S(=O)(=O)c1cccc(C(F)(F)F)c1)N[C@@H]1CCCc2cc(CNCC3CC3)ccc21`: the figures for the IC50 against B1 bradykinin receptor [1] and at B1 bradykinin receptor [2] were 16 nM and 31 nM, respectively.
